In patent US10555987B2, “GHRH agonists for the treatment of ischemic disorders” (UNIVERSITY OF MIAMI, priority 2012, dated 2020):
Marks after values point to notes of the source that are not given here. Non-standard residues stand in square brackets, D forms with d. Residues, ends and D or L forms follow the SMILES beside them. *: point of attachment. Desaminotyrosyl = O=C(CCc1ccc(O)cc1)*; NMeY = CN[C@@H](Cc1ccc(O)cc1)C(=O)O; Nle = CCCC[C@H](N)C(=O)O; Orn = NCCC[C@H](N)C(=O)O; Abu = CC[C@H](N)C(=O)O

How the values were obtained:
GH release = experiment: GH releasing potency in vivo, subcutaneous administration (Example 14, Table 12); set-up: species or system rat; details: s.c.; for Serum GH level at selected time after injection (ng/ml), 0 min / Serum GH level at selected time after injection (ng/ml), 15 min / Serum GH level at selected time after injection (ng/ml), 30 min: male rats, dose 3 μg/kg, mean ± SEM
Experimental: Male Sprague-Dawley rats, weighing 200-250 g, were purchased from Charles River Laboratory (Wilmington, Mass.) and used for experiments. All animal procedures were approved by the Veterans Affairs Animal Care and Use Committee and were conducted in accordance with additional institutional guidelines as well. Briefly, groups of 5-6 animals were used in each experiment. The rats were anesthetized with 50 mg/kg of sodium pentobarbital (Nembutal, Lundbeck Inc., Deerfield, Ill.). Twenty min after inducing anesthesia, GHRH(1-29)NH2, JI-38, or new analogs were injected into the animals intravenously (i.v.) or subcutaneously (s.c.). The peptides were dissolved in 0.01 M acetic acid to get 1 μg/μl stock solution, and then diluted with 5% mannitol. Control rats received 5% mannitol only. Blood samples were collected from the jugular vein at selected times and were used for serum preparation. Concentrations of GH in rat sera were determined by ELISA. The relative potencies of tested peptides were calculated using GHRH(1-29)NH2 and JI-38 for comparison, whose potency was defined as 1. The equivalent dosage of GHRH(1-29)NH2 to reach the same level of serum growth hormone release after injection of the specific tested peptide was determined from a GHRH(1-29)NH2 standard curve using Origin 6.0 software. […] Serum GH was determined using the rat Growth Hormone ELISA kit (ALPCO Diagnostics, Mill Valley, Calif.) according to the manufacturer's instruction. Absorbance at 405 nm was measured by a Victor 3 Multi-label Counter (Perkin-Elmer, Waltham, Md.).

GHRH receptor [1] = molecular target: T1, GHRH receptor (Homo sapiens, UniProt Q02643); experiment: GHRH receptor binding, competition with 125I-labeled JV-1-42, human pituitary membrane homogenates (Table 7); set-up: Normal human pituitaries were purchased from the National Hormone and Peptide Program; tissue National Hormone and Peptide Program (A.F. Parlow, Harbor-UCLA Medical Center, Torrance, Calif.); host or cells: normal human pituitary, membrane fraction; details: for Relative affinity (Binding potency) vs JI-38: JI-38 = 1, Table 7
T1 sequence (Q02643 23-423): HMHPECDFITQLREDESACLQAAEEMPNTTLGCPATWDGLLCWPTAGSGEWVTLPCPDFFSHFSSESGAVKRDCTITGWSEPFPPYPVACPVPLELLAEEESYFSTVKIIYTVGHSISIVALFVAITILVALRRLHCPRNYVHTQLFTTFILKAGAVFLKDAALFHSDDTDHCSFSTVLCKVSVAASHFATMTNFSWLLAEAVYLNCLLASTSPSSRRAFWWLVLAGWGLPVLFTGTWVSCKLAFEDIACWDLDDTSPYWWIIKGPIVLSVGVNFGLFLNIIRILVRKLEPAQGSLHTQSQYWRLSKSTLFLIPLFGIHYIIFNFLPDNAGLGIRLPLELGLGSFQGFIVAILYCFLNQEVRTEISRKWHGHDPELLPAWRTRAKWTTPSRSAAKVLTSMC
Description: Normal human pituitaries were purchased from the National Hormone and Peptide Program (A.F. Parlow, Los Angeles, County Harbor-UCLA Medical Center, Torrance, Calif.).

GHRH receptor [2] = molecular target: T1, GHRH receptor; experiment: Receptor binding in vitro, 125I-labeled [His1,Nle27]-hGHRH(1-32)NH2, membrane receptors of human anterior pituitary cells (Table 14); details: for Relative affinity (Binding potency) compared to JI-38: JI-38 = 1; for Relative affinity (Binding potency) compared to hGHRH(1-29): hGHRH(1-29)NH2 = 1
Description: Normal human pituitary was purchased from the National Hormone and Peptide Program (UCLA Medical Center, Torrance, Calif.).

| Compound | Serum GH level at selected time after injection (ng/ml), 0 min (GH release) | Serum GH level at selected time after injection (ng/ml), 15 min (GH release) | Serum GH level at selected time after injection (ng/ml), 30 min (GH release) | Relative potency compared to GHRH(1-29), 15 min (GH release) | Relative potency compared to JI-38, 15 min (GH release) | Relative potency compared to GHRH(1-29), 30 min (GH release) | Relative potency compared to JI-38, 30 min (GH release) | Relative affinity (Binding potency) vs JI-38 (GHRH receptor [1]) | Relative affinity (Binding potency) compared to JI-38 (GHRH receptor [2]) | Relative affinity (Binding potency) compared to hGHRH(1-29) (GHRH receptor [2]) | IC50 (GHRH receptor [1]; 125I-JV-1-42, human pituitary membranes, Table 7) | GH-releasing potency after s.c. administration (in words) (GH release) |
| --- | --- | --- | --- | --- | --- | --- | --- | --- | --- | --- | --- | --- |
| CCCC[C@H](NC(=O)[C@@H](NC(=O)[C@H](CC(=O)O)NC(=O)[C@H](CCC(N)=O)NC(=O)[C@H](CC(C)C)NC(=O)[C@H](CC(C)C)NC(=O)[C@H](CCCN)NC(=O)[C@H](CCCNC(=N)N)NC(=O)[C@H](C)NC(=O)[C@H](CO)NC(=O)[C@H](CC(C)C)NC(=O)[C@H](CCC(N)=O)NC(=O)[C@H](CC)NC(=O)[C@H](CC(C)C)NC(=O)[C@@H](NC(=O)[C@H](CCCN)NC(=O)[C@H](CCCNC(=N)N)NC(=O)[C@H](Cc1ccc(O)cc1)NC(=O)[C@H](CO)NC(=O)[C@H](CCC(N)=O)NC(=O)[C@@H](NC(=O)[C@H](Cc1ccccc1)NC(=O)[C@@H](NC(=O)[C@H](C)NC(=O)[C@H](CC(=O)O)NC(=O)[C@H](C)NC(=O)CCc1ccc(O)cc1)[C@@H](C)CC)[C@@H](C)O)C(C)C)[C@@H](C)CC)C(=O)N[C@@H](CC(=O)O)C(=O)N[C@@H](CCCNC(=N)N)C(=O)NC [Peptide P-27407, [Dat^1, Gln^8, Orn^12, Abu^15, Orn^21, Nle^27, Asp^28]hGHRH(1-29)NH—CH3] (Desaminotyrosyl-ADAIFTQSYR[Orn]VL[Abu]QLSAR[Orn]LLQDI[Nle]DR-NHMe) | 36.7 ± 10.2 ng/mL | 248.0 ± 40.5 ng/mL | 135.2 ± 10.8 ng/mL | 69.6 | 1.10 | 122 | 1.09 | 1.45 | 0.54 | 1.52 | – | – |
| CCCC[C@H](NC(=O)[C@@H](NC(=O)[C@H](CC(=O)O)NC(=O)[C@H](CCC(N)=O)NC(=O)[C@H](CC(C)C)NC(=O)[C@H](CC(C)C)NC(=O)[C@H](CCCN)NC(=O)[C@H](CCCNC(=N)N)NC(=O)[C@H](C)NC(=O)[C@H](CO)NC(=O)[C@H](CC(C)C)NC(=O)[C@H](CCC(N)=O)NC(=O)[C@H](CC)NC(=O)[C@H](CC(C)C)NC(=O)[C@@H](NC(=O)[C@H](CCCN)NC(=O)[C@H](CCCNC(=N)N)NC(=O)[C@H](Cc1ccc(O)cc1)NC(=O)[C@H](CO)NC(=O)[C@H](CCC(N)=O)NC(=O)[C@@H](NC(=O)[C@H](Cc1ccccc1)NC(=O)[C@@H](NC(=O)[C@H](C)NC(=O)[C@H](CC(=O)O)NC(=O)[C@@H](C)NC(=O)CCc1ccc(O)cc1)[C@@H](C)CC)[C@@H](C)O)C(C)C)[C@@H](C)CC)C(=O)N[C@@H](CC(=O)O)C(=O)N[C@@H](CCCNC(=N)N)C(=O)NC [Peptide P-27408, [Dat^1, D-Ala^2, Gln^8, Orn^12, Abu^15, Orn^21, Nle^27, Asp^28]hGHRH(1-30)NH—CH3] (Desaminotyrosyl-[dA]DAIFTQSYR[Orn]VL[Abu]QLSAR[Orn]LLQDI[Nle]DR-NHMe) | 37.6 ± 15.5 ng/mL | 213.3 ± 32.0 ng/mL | 121.2 ± 8.4 ng/mL | 57.2 | 0.91 | 100.5 | 0.90 | 7.91 | 0.53 | 1.21 | 0.55 nM | – |
| CCCC[C@H](NC(=O)[C@@H](NC(=O)[C@H](CC(=O)O)NC(=O)[C@H](CCC(N)=O)NC(=O)[C@H](CC(C)C)NC(=O)[C@H](CC(C)C)NC(=O)[C@H](CCCN)NC(=O)[C@H](CCCNC(=N)N)NC(=O)[C@H](C)NC(=O)[C@H](CO)NC(=O)[C@H](CC(C)C)NC(=O)[C@H](CCC(N)=O)NC(=O)[C@H](CC)NC(=O)[C@H](CC(C)C)NC(=O)[C@@H](NC(=O)[C@H](CCCN)NC(=O)[C@H](CCCNC(=N)N)NC(=O)[C@H](Cc1ccc(O)cc1)NC(=O)[C@H](CO)NC(=O)[C@@H](NC(=O)[C@@H](NC(=O)[C@H](Cc1ccccc1)NC(=O)[C@@H](NC(=O)[C@H](C)NC(=O)[C@H](CC(=O)O)NC(=O)[C@@H](C)NC(=O)[C@H](Cc1ccc(O)cc1)NC)[C@@H](C)CC)[C@@H](C)O)[C@@H](C)O)C(C)C)[C@@H](C)CC)C(=O)N[C@@H](CC(=O)O)C(=O)N[C@@H](CCCNC(=N)N)C(=O)NC [Peptide P-27410, [N—Me-Tyr^1, D-Ala^2, Thr^8, Orn^12, Abu^15, Orn^21, Nle^27, Asp^28]hGHRH (1-29)NH—CH3] (H-[NMeY][dA]DAIFTTSYR[Orn]VL[Abu]QLSAR[Orn]LLQDI[Nle]DR-NHMe) | 34.1 ± 1.2 ng/mL | 334.0 ± 54.0 ng/mL | 250.4 ± 28.6 ng/mL | 102.5 | 1.58 | 363.2 | 3.25* | 5.24 | 2.14 | 5.98 | – | significantly higher potencies at 30 minutes than at 15 minutes |
| CCCC[C@H](NC(=O)[C@@H](NC(=O)[C@H](CC(=O)O)NC(=O)[C@H](CCC(N)=O)NC(=O)[C@H](CC(C)C)NC(=O)[C@H](CC(C)C)NC(=O)[C@H](CCCN)NC(=O)[C@H](CCCNC(=N)N)NC(=O)[C@H](C)NC(=O)[C@H](CO)NC(=O)[C@H](CC(C)C)NC(=O)[C@H](CCC(N)=O)NC(=O)[C@H](CC)NC(=O)[C@H](CC(C)C)NC(=O)[C@@H](NC(=O)[C@H](CCCN)NC(=O)[C@H](CCCNC(=N)N)NC(=O)[C@H](Cc1ccc(O)cc1)NC(=O)[C@H](CO)NC(=O)[C@H](CCC(N)=O)NC(=O)[C@@H](NC(=O)[C@H](Cc1ccccc1)NC(=O)[C@@H](NC(=O)[C@H](C)NC(=O)[C@H](CC(=O)O)NC(=O)[C@@H](C)NC(=O)[C@H](Cc1ccc(O)cc1)NC)[C@@H](C)CC)[C@@H](C)O)C(C)C)[C@@H](C)CC)C(=O)N[C@@H](CC(=O)O)C(=O)N[C@@H](CCCNC(=N)N)C(=O)NCC [Peptide P-28420, [N—Me-Tyr^1, D-Ala^2, Gln^8, Orn^12, Abu^15, Orn^21, Nle^27, Asp^28]hGHRH(1-29)NH—CH2—CH3] (H-[NMeY][dA]DAIFTQSYR[Orn]VL[Abu]QLSAR[Orn]LLQDI[Nle]DR-NHEt) | 35.5 ± 7.6 ng/mL | 256.2 ± 46.0 ng/mL | 126.1 ± 15.8 ng/mL | 72.6 | 1.15 | 107.8 | 0.96 | 8.37 | 1.01 | 2.83 | – | – |
